Values quoted from earlier work in paper PMC4984525 (Cancer, 2011).

Tested on: multiple myeloma
Conditions: cited from earlier work

In the case of `CON(C)C(=O)N1N=C(c2cc(F)ccc2F)S[C@@]1(CCCN)c1ccccc1` [ARRY-520], the “activity in xenograft models of multiple myeloma” value is listed as “has shown activity”.
